Tested on: human skin
Test: mechanical testing of skin sample sites with a tensiometer (elastic modulus, peak load)
Details: fully treated (full thickness needling + 0.1% Rose Bengal in saline + green light LED array) vs untreated and needled-only skin
Experimental: Additionally, mechanical testing was performed on sample sites using a tensiometer to measure elastic modulus before and after treatment. The elastic modulus and peak load were recorded on samples that were (1) untreated (2) partially treated (needled only), and (3) fully treated (needled plus agent application and irradiation). Full treatment included full thickness needling of the skin surface followed by application of a 0.1% solution of Rose Bengal in saline and irradiation with a multi-light-emitting LED diode array that delivered green light to the sample surface.

## O=C([O-])c1c(Cl)c(Cl)c(Cl)c(Cl)c1-c1c2cc(I)c(=O)c(I)c-2oc2c(I)c([O-])c(I)cc12.[Na+].[Na+] [Rose Bengal]
  increase in peak load: three-fold
  increase in the elastic modulus: five-fold

From patent US11883680B2, “Method and apparatus for tightening skin and other tissues” (The General Hospital Corporation, priority 2016, dated 2024)
